Bridge positions count the residues as written; N and C are the ends. Peptide text beside a SMILES is read from it.
Key:
[1] = reference control; cited from earlier work
[2] = Far-UV circular dichroism, calculated percent helicity in phosphate buffer; type: physicochemical; details: 100 µM in 10 mM sodium phosphate buffer (PBS), pH 7.4, 25 °C; calculated at 222 nm
Protocol: Figure 3 Data generated from Far-UV CD spectra for hACE2-derived peptides measured at a concentration of 100 µM in 10 mM sodium phosphate buffer at pH 7.4 and 25 °C. (A) Far-UV CD spectra of hACE2 (Asp30-Asp38)-derived linear and i, i + 4 staple peptides in molar ellipticity per residue. (B) Table listing the derivatives of 1 with a focus on the macrocyclization technique and measure-based calculated helicity (%) via CD. (C) CD spectra of hACE2 (His34-Gln42)-derived linear and i, i + 4 staple peptides in molar ellipticity per residue. (D) Table listing the derivatives of 2 with a focus on the macrocyclization technique and measure-based calculated helicity (%) via CD. HDY 1,5-Hexadiyne; BMB 1,4-Bis(bromomethyl)benzene; HFB hexafluorobenzene. ^a Predicted helicity (%) using AGADIR online software available at http://agadir.crg.es (accessed on 17 April 2023); it is only applicable to peptides consisting of natural amino acids. […]
The raw CD data (mdeg) were converted to mean residue ellipticity ( [θ] , deg·cm^2·dmol^−1·res^−1) by normalizing for peptide concentration, the number of amide bonds and path length, using Equation (2):(2) [θ]=θ/10×C×Np×l where θ is the measured ellipticity (mdeg), C is the peptide molar concentration (M), Np is the number of amino acid residues in the peptide and l is the cell path length (cm).
The maximum mean ellipticity [θ]max was calculated using Equation (3), as reported previously:(3) [θ]max=−44000+250×T×1−k/Np where T is temperature (°C) and k is the number of non-hydrogen-bonded peptide carbonyls. […]

[3] = target: SARS-CoV-2 Spike RBD/hACE2 interactions (Severe acute respiratory syndrome coronavirus 2, UniProt P0DTC2); type: biochemical, SARS-CoV-2 / human
[4] = type: physicochemical; details: 100 µM in 50/50 TFE/10 mM sodium phosphate buffer, pH 7.4, 25 °C
[5] = 37 °C, comparison in words
[6] = BeStSel analysis of Far-UV CD spectra (secondary structure content); type: physicochemical; details: from Far-UV CD spectra
From the text: This finding prompted us to synthesize the lactam stapled peptides 22 and 23. Similar to our observations of compound 10, we also noted a dominant conformation of 22 attributable to a regular helix1 (53.7%) and an antiparallel, right-twisted β-sheet (46.3%). Therefore, the high percentage of calculated helicity in compounds 10 and 22 can be explained on the basis of the contribution of a strong, negative absorbance band within the 217–218 nm spectral range of the Far-UV CD spectra. Such features are typical of a right-twisted β-sheet.
We were also successful at applying several cyclization strategies across the panel of hACE2 (His34-Gln42)-derived peptides. […] The associated root mean square deviation (RMSD) was 0.5. […] The distortion of the helical conformation can be partially explained by the highly polar nature of our peptide sequence (7 out of 9 amino acids) and inherent limitations in terms of the maximum helicity possible for short peptides due to C- and N-terminal distortions. […] That finding highlights the substantial influence of the initial linear sequence on staple-induced helicity.

in vitro = details: rat, plasma
circular dichroism = details: 10 mM Na phosphate; pH 7.4; 25 °C; 100 uM

Compound: Apelin-13 (QRPRLSHKGPMPF; Apelin-13; UniProt Q9ULZ1 65-77, looked up)
- In vitro half-life (t1/2), in words [1]: short in vitro half-life

Compound: Ac-NH-His-Glu-[Lys-Glu-Asp-Leu-dPra]-Tyr-Gln-CO-NH2 [compound 13]
- Helicity (%) via CD [2]: 18.1%

Compound: Ac-NH-His-Glu-S5-Glu-Asp-Leu-S5-Tyr-Gln-CO-NH2 [linear 11]
- Helicity (%) via CD [2]: 11.0%

Compound: CC(=O)N[C@@H](Cc1c[nH]cn1)C(=O)N[C@@H](CCC(=O)O)C(=O)N[C@H]1CCCCNC(=O)C[C@@H](C(=O)N[C@@H](Cc2ccc(O)cc2)C(=O)N[C@@H](CCC(N)=O)C(N)=O)NC(=O)[C@H](CC(C)C)NC(=O)[C@H](CC(=O)O)NC(=O)[C@H](CCC(=O)O)NC1=O [peptide 4, Ac-NH-His-Glu-[Lys-Glu-Asp-Leu-Asp]-Tyr-Gln-CO-NH2] (Ac-HEKEDLDYQ-NH2; lactam 3-7)
- Luminescence signal (RLUs), disruption of SmBiT-ACE2 + LgBiT-RBD [3]: reduced the luminescence signal
- Helicity in 50%TFE (%) [4]: 49.4%
- Degradation / stability in rat plasma over 24 h [5]: significantly more stable
- Distorted helix2 with BeStSel [6]: 18.3%
- Helical content (α-helical character) with BeStSel [6]: 37.0%
- Regular helix1 with BeStSel [6]: 18.7%
- half-life (in vitro): 300 min
- helicity (circular dichroism): 55.5%

Compound: Ac-NH-Asp-Lys-[Lys-Asn-His-Glu-Asp]-Glu-Asp-[Lys-Phe-Tyr-Gln-Asp]-CO-NH2 [peptide 24]
- Helicity (%) via CD [2]: 25.2%

From publication PMC10778704, “Comparative Analysis of Cyclization Techniques in Stapled Peptides: Structural Insights into Protein–Protein Interactions in a SARS-CoV-2 Spike RBD/hACE2 Model System” (International Journal of Molecular Sciences, 2023)
